According to patent US12497376B2, “Compound [2-(dimethylamino)-2-phenylbutyl]-3,4,5-trimethoxybenzoate 4-methyl-2H-chromen-2-on-7-yl sulphate and use thereof” (LTD “VALENTA—INTELLEKT”, priority 2020, dated 2025):

System: male mice of the C57 BL/6 line
Assay: von Frey filament test (mechanical allodynia) in the model of visceral pain induced by TNBS colitis
Type: in vivo
Conditions: for Mechanical allodynia intensity, g (mean ± standard error of the mean): oral once daily from day 3 after TNBS, von Frey test on Day 28, placebo 2.0 ± 0.5
Procedure: In the experiments, 13-week old male mice of the C57 BL/6 line were used. Sixty (60) animals were randomly distributed into four (4) groups of equal number (N=15) characterized by the dosage of the administered compound.
The study was conducted for three different doses of the compound of Formula I. A group of mice receiving only the carrier (starch solution) served as the control group (placebo group).
Colitis was induced by introducing 0.1 mL of TNBS (trinitrobenzene sulfonate) (130 μg/mL in 30% EtOH) into the large intestine through a polyethylene catheter introduced by 3 cm into the anus of mice anesthetized with isoflurane. Then, the mice were arranged individually, and changes in the body weight, appearance and behavior were observed daily. A histological study of the mucosa structure, cell infiltrate, intestinal crypt abscesses and goblet cells confirmed significant damage caused by the TNBS introduction on Day 3 and, in a significant degree, on Day 7 [6].
The preparations were introduced orally in three days after the TNBS introduction and then once daily for the whole study period.
To assess pain behavior, the von Frey test with filaments (appearance of mechanical allodynia) on Day 28 after the TNBS introduction.
The animals were put into an acrylic chamber (15×15×15 cm) raised above the ground with a wire mesh on the bottom. Before starting the tests, the animals were left in the chamber for 5-10 minutes for adaptation. Then, the abdominal cavity of the animal was stimulated with von Frey calibrated filaments (or fibers) (BIOSEB, USA). The filaments were a set of 10 standard plastic fibers of increasing diameters. The fiber rigidity, which is expressed as a minimal force required to flex a fiber, was increased in such calibration logarithmically, with absolute values from 0.6 g to 26 g. Sensitivity threshold of each mouse was determined in three repeats (6 touches in total with 10-second interval for each filament; the interval between successive touches with different filaments was 2 minutes). The abdominal surface was poked with a force required to flex the fiber, and the fiber was held in that position for 6-8 seconds. The positive response was recorded, if the animal sharply winced during touching. A sensitivity threshold was determined by a minimal pressure causing the wincing reflex reaction (4 times of 6 touches).
An average score received in a corresponding test and a standard error of the mean for each value were calculated for each study group (n=15).

With “[2-(dimethylamino)-2-phenylbutyl]-3,4,5-trimethoxybenzoate 4-methyl-2H-chromen-2-on-7-yl sulphate [Compound of Formula I]” the “Mechanical allodynia intensity, g (mean ± standard error of the mean)” value (dose 10 mg/day (recalculated for a human), group 2, n=15) was 10.0 ± 0.5 g, the “Mechanical allodynia intensity, g (mean ± standard error of the mean)” value (dose 300 mg/day (recalculated for a human), group 3, n=15) was 21.4 ± 0.9 g and the “Mechanical allodynia intensity, g (mean ± standard error of the mean)” value (dose 1,800 mg/day (recalculated for a human), group 4, n=15) was 23.1 ± 1.0 g. For the same substance, the “Indices of mechanical allodynia versus placebo” value (groups receiving the compound (10, 300, 1,800 mg/day), p < 0.05 versus placebo) was “significantly lower”.
